Laboratory results: US7468150B2, “Synthesis of conducto-magnetic polymers as nano-transducers in biosensor design” (Board of Trustees of Michigan State University, priority 2005, dated 2008)
Converted amounts (≈) assume the structure as drawn.

Tests used:
Format in all cases: physicochemical
[1] = Degradability of β-carotene in toluene by absorbance over time; details: absorbance graphs over several days
Protocol: (§1) β-carotene nanocomposites: To create β-carotene nanocomposites, the use of an appropriate solvent was crucial. Acetone, toluene, kwik-dri, and tetrahydrofuran (THF) were tested. The solubility of β-carotene in kwik-dri, a non-aromatic industrial solvent similar to toluene, was crudely determined. Solutions of β-carotene nanocomposites were characterized by absorbance checks and conductivity measurements. […] Mixtures of β-carotene with PANi emeraldine salt and various other PANi-derived polymers are attained forming a variety of other composites.

[2] = Solubility of β-carotene in kwik-dri; details: crudely determined
Protocol: as §1

[3] = Conductivities of polymers and nanocomposites in solution (Acorn TDS 5 Meter); details: solvent as given in the compound name
Protocol: In order to characterize […] and related compounds, several methods were utilized. First, the DC SQUID (Superconducting Quantum Interference Device) magnetometer was used to measure magnetization of solid […] after 3 weeks and the […] base (control). Absorbance checks using spectrophotometer were performed on […] in solution. Conductivities in solution of […] were gauged by Acorn® TDS 5 Meter. […] To create β-carotene nanocomposites, the use of an appropriate solvent was crucial. […] Solutions of β-carotene nanocomposites were characterized by absorbance checks and conductivity measurements. […] Mixtures of β-carotene […] various other PANi-derived polymers are attained forming a variety of other composites.

Q: For `CC1=C(/C=C/C(C)=C/C=C/C(C)=C/C=C/C=C(C)/C=C/C=C(C)/C=C/C2=C(C)CCCC2(C)C)C(C)(C)CCC1` [β-carotene], which Degradability [1] is on record?
A: degradability in toluene was demonstrated

Q: And the Solubility [2]?
A: 500 µg/mL (≈ 931 µM)

Q: And the Conductivity [3]?
A: ~0 μS

Q: What about the Conductivity ([3]; listed as Kwik-dri + β-carotene) of the same molecule?
A: 0.15 μS

Q: What about the Conductivity ([3]; listed as THF + β-carotene) of the same molecule?
A: ~0 μS
